Measured values taken from PubChem BioAssay AID1996.
≈ marks a conversion by molar mass, not a printed value.

Details: buffer; pH 7.4; 200.0 µM

Compound | solubility kinetic
Cc1ccc(C(=O)NC(=S)NCc2ccccc2)cc1Br | 0.4 µg/mL (≈ 1.1 µM)
COC(=O)c1ccccc1NC(=O)CN1CCCCCC1 | 31.6 µg/mL (≈ 109 µM)
CCCCOc1ccc(C(=O)OCC(=O)N2CCCCCC2)cc1 | 8.4 µg/mL (≈ 25.2 µM)
CCC1Oc2ccccc2N(CC(=O)N2CCOCC2)C1=O (stereo not given) | > 45.7 µg/mL
O=C(c1cnccn1)N1CCN(S(=O)(=O)c2cccc(Cl)c2)CC1 | > 55 µg/mL
COc1ccc(S(=O)(=O)N2CCN(C(=O)CC(C)C)CC2)cc1 | > 51.1 µg/mL
CN1CCN(c2c(F)cc3c(=O)c(C(=O)[O-])cn4c3c2OCN4C)CC1 | > 54.2 µg/mL
O=c1sc2ccccc2c(N2CCCC2)c1[N+](=O)[O-] | > 41.4 µg/mL
COc1ccc(-c2cc(C(=O)OCC(=O)NC3CC3)c3ccccc3n2)cc1OC | 10 µg/mL (≈ 24.6 µM)
CCc1cccc(OC2OC(CO)C(O)C(O)C2NC(C)=O)c1 (stereo not given) | > 48.8 µg/mL
C/C(CC(=O)NCCN1CCOCC1)=N\NC(=O)c1ccncc1 | > 50 µg/mL
Cc1ccc(S(=O)(=O)NCCc2c[nH]c3ccccc23)cc1 | 37.7 µg/mL (≈ 120 µM)
O=C(O)Cc1c[nH]c2ccc(O)cc12 | > 28.7 µg/mL
COc1ccccc1NC(=O)c1ccccc1Nc1ccccc1 | 0.5 µg/mL (≈ 1.57 µM)
O=C(N/N=C/c1cccnc1)c1ccccc1Br | > 45.6 µg/mL
CC1=C(C(=O)OC(C)C)C(c2cccs2)NC(=O)N1 (stereo not given) | 37.2 µg/mL (≈ 133 µM)
CC1=C([N+](=O)[O-])C(c2ccccc2Cl)NC(=O)N1 (stereo not given) | > 40.2 µg/mL
CC(C)N(C(=O)COC(=O)c1ccc(Cl)nc1)C(C)C | 30.7 µg/mL (≈ 103 µM)
Cc1cccc(OCCC(=O)Nc2ccc(Cl)cc2F)c1 | < 0.7 µg/mL
CCOC(=O)C1CCN(S(=O)(=O)c2cn(C)cn2)CC1 | > 45.2 µg/mL

Compound | solubility kinetic
COc1ccc(OC)c(NC(=O)CCN2CCN(C)CC2)c1.Cl | 44.2 µg/mL
Fc1ccc(NC(=S)Nc2cccnc2)cc1Cl | > 42.3 µg/mL
Cc1onc(-c2c(Cl)cccc2Cl)c1/C(N)=N/OC(=O)N(C)C | > 53.6 µg/mL
COC(=O)c1ccc(C[n+]2ccccc2)cc1.[Br-] | > 46.2 µg/mL
COc1ccccc1CC(=O)Nc1cc(C)ccn1 | > 38.4 µg/mL
CC(C)(C)c1ccc(C(=O)NCc2ccccc2)cc1 | < 0.6 µg/mL
O=c1[nH]c(S)c(/C=C2\C=Nc3ccccc32)s1 | 9.6 µg/mL (≈ 36.9 µM)
COc1ccc(NS(=O)(=O)c2ccc(C)cc2)c([N+](=O)[O-])c1 | 44.1 µg/mL (≈ 137 µM)
NC(=O)CCS(=O)(=O)c1ccc(Cl)cc1 | > 37.2 µg/mL
O=C(CNC(=O)c1ccc(Cl)cc1)c1ccc(Cl)cc1 | 9 µg/mL (≈ 29.2 µM)
COc1ccc(Cl)cc1C(=O)NCCN1CCOCC1 | > 44.8 µg/mL
CCCCNC(=O)COC(=O)c1ccc(C)c(NC(=O)c2ccco2)c1 | 17.8 µg/mL (≈ 49.7 µM)
CC1CCCC(C)N1C(=O)COc1cccc(Oc2ccccc2)c1 (stereo not given) | 20.8 µg/mL (≈ 61.3 µM)
O=C1NCCCCC1NS(=O)(=O)c1cccc2ccccc12 (stereo not given) | > 47.8 µg/mL
O=C(Oc1ccc(Cl)cc1)N1CCOCC1 | > 36.3 µg/mL
c1ccc(-c2nc(N3CCOCC3)sc2-c2ccccc2)cc1 | < 0.3 µg/mL
COc1ccc(OC)c(N/C(N)=N/c2nc(C)cc(C)n2)c1 | 40.5 µg/mL (≈ 134 µM)
COCCCN1CN=C(NS(=O)(=O)c2ccc(C)cc2)NC1 | > 49 µg/mL
Br.CC1=C(c2ccccc2)SC2=NCCN21 | > 44.6 µg/mL
O=S(=O)(c1cccs1)N1CCN(c2ccccc2F)CC1 | 15.6 µg/mL (≈ 47.8 µM)

Compound | solubility kinetic
Cc1ccc(C)c(S(=O)(=O)NCCCN2CCOCC2)c1 | > 46.9 µg/mL
CC(C)(C)c1csc(NC(=O)CS(=O)(=O)c2ccccc2)n1 | 50.6 µg/mL (≈ 150 µM)
O=C(O)c1ccccc1C(=O)NC1CCCc2ccccc21 (stereo not given) | > 44.3 µg/mL
COc1ccc(OC)c(/C=C/C(=O)NC2=NCCS2)c1 | 4 µg/mL (≈ 13.7 µM)
Cc1ccc(S(=O)(=O)N(C)CC(=O)N2CCC(C(N)=O)CC2)cc1 | > 53 µg/mL
Cc1cc(OC(C)C(=O)Nc2ccncc2)ccc1Cl (stereo not given) | > 43.6 µg/mL
CC(C(=O)Nc1ccc(Cl)cc1)N(C)Cc1cccs1 (stereo not given) | 13.4 µg/mL (≈ 43.4 µM)
O=C(Nc1ccc(F)cc1)N1CCCCCC1 | > 35.4 µg/mL
CCN(C(=O)Cn1c(Cl)nc2c1c(=O)n(C)c(=O)n2C)C1CCCCC1 | > 57.3 µg/mL
Cc1cc(C)cc(OCC(=O)N2CCN(c3ncccn3)CC2)c1 | > 49 µg/mL
CCOC(=O)c1cnc2ccc(C)cc2c1N(C)Cc1ccccc1 | 3.8 µg/mL (≈ 11.4 µM)
Clc1nc(N2CCOCC2)ncc1Br | > 41.8 µg/mL
Cc1nc2sc3c(c2c(=O)n1NC(=O)CCl)CCCC3 | > 46.8 µg/mL
O=C(Nc1cccc(-c2cnc3ccccc3n2)c1)c1ccncc1 | 0.6 µg/mL (≈ 1.84 µM)
CC(C)(C)c1ccc(S(=O)(=O)N2CCN(CC(O)CN3CCOCC3)CC2)cc1 (stereo not given) | > 63.8 µg/mL
CCN(CC(=O)N1CCCCCC1)S(=O)(=O)c1ccc(C)cc1 | > 50.8 µg/mL
CCn1c(N)c(Br)c(=O)[nH]c1=O | > 35.1 µg/mL
Cc1onc(-c2ccccc2)c1C(=O)NC(C)c1ccccc1 (stereo not given) | 4.9 µg/mL (≈ 16 µM)
N#Cc1ncccc1CCc1cccc(Cl)c1 | 22.4 µg/mL (≈ 92.3 µM)
Cl.O=C1CCC(c2ccccc2)(C2CCN(Cc3ccccc3)CC2)C(=O)N1 (stereo not given) | 51.4 µg/mL
